In paper PMC11137019, “G protein-specific mechanisms in the serotonin 5-HT2A receptor regulate psychosis-related effects and memory deficits” (Nature Communications, 2024) one finds pKi data, which are given here for 1 compound.

Structures are written as SMILES. Where a name gives a salt, the structure may show the parent alone.

In the assay the target is T1, 5-HT2AR (CHO-5-HT2A cell membranes) (Homo sapiens, UniProt P28223).
T1 construct: gene HTR2A; membranes from CHO-5-HT2A cell line prepared in the authors' laboratory
T1 sequence (P28223 whole entry): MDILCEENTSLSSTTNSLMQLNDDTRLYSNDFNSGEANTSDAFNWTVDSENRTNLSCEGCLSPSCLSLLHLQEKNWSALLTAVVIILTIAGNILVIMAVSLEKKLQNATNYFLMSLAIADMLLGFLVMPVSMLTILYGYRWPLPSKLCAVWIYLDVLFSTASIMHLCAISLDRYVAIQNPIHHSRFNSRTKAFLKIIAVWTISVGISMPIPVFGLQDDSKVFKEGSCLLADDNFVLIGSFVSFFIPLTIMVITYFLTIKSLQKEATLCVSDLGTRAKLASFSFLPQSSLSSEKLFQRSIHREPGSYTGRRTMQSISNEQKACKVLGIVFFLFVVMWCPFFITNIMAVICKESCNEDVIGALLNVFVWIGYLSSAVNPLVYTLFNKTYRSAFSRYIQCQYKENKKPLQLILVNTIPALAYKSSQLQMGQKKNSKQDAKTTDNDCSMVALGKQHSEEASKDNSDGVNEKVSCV
Nature of the assay: [3H]ketanserin competition binding, CHO-5-HT2A membranes. To be noted: […] °C, […] min, orthosteric site.

On to `NCCc1c[nH]c2ccc(-c3ccc4c(c3)OCCO4)cc12` [OTV1, 2-[5-(2,3-dihydro-1,4-benzodioxin-6-yl)-1H-indol-3-yl]ethan-1-amine Hydrochloride], for which the pKi result is “Ligand binding affinities (pKi) are indicated for Nitro-I, Met-I, OTV1 and OTV2”.
